In US9340559B2, “Proteasome inhibitor delanzomib for use in the treatment of lupus” (Cephalon, Inc., priority 2011, dated 2016):

Experiments:
20S proteasome [1] = experiment: 20S proteasome activity in spleen (ex vivo fluorogenic assay), NZM mice (Example 2)
IκBα [2] = experiment: IκBα accumulation ELISA in kidney 3 hours post dose, MRL/lpr mice; assay type: in vivo, mouse
Protocol: (§1) Samples are homogenized frozen using a PT 10-35 Polytron homogenizer (VWR, no. 97036-082). […] Spleen proteasome activity is analyzed using 20S fluorogenic assay (Cayman Chemical Company, Cat #10008041, Lot #0414698-1) and modulation of proteasome activity in the kidney is analyzed using the IκBα accumulation ELISA assay (Cell Signaling, Cat #7355, Lot #17).

MRL/lpr mice = experiment: Serum C3 complement ELISA, MRL/lpr mice; assay type: in vivo, mouse
From the text: Mice are tracked on an individual basis.

20S proteasome [3] = experiment: 20S proteasome activity in spleen (ex vivo fluorogenic assay), MRL/lpr mice; settings: for PD EOS 20S proteasome, percent change vs vehicle: spleen
NZM mice [4] = experiment: Serum IL-12 by Luminex, NZM mice (Example 3); assay type: in vivo, mouse
Protocol: FIG. 48 depicts serum IL-12 concentration in NZM mice. Mean±SEM values for the concentration of mouse serum IL-12 from treated NZM mice at the end of the study.
For the processing of serum samples for cytokine analysis, frozen plasma at −80° C. is thawed on ice, vortexed, and centrifuged for 10 minutes (10,000×g) to remove debris and aggregates. A total of 25-50 μL of serum is used for Luminex assays following the manufacturer's instructions. Ten different mouse cytokines are measured using the mouse cytokine 20-plex bead kit (Invitrogen, Carlsbad, Calif., no. LMC0006). Briefly, filter plates (Millipore, Billerica, Mass., no. MAIPSWU10), are pre-wet with 200 μL of wash solution (kit component) and 25 μL of beads are added per well. Serum samples are diluted and a total volume of 50 μL is added per well (ie, 25 μL of sample serum plus 25 μL of assay diluent as provided by the manufacturer). Plates with beads are incubated for 2 hours at room temperature (RT) on an orbital shaker in the dark. At the end of the incubation, plate(s) are washed twice in kit buffer, secondary biotinylated antibody is added at a 1:10 dilution (100 μL) in biotin diluent provided with the kit. Plates are incubated at RT for 1 hour in the dark then washed twice in kit buffer. Strepavidin in assay diluent is added at 100 μL per well, then incubated for 30 minutes at RT in the dark. The plates are washed 3 times then 100 μL of kit wash solution is added and agitated for 2-3 minutes at RT in the dark. Plates are run immediately following this incubation period on a Luminex xMAP 200 unit with data acquisition and analysis software (Invitrogen, San Diego, Calif., no. MAP0200). All bead washing is performed using a vacuum manifold unit (Pall, Ann Arbor, Mich. no. 5017). For all cytokine Luminex assays, values below the limit of detection set by the lowest point along the standard or set by the manufacturer are considered out of range and are not estimated, but assumed the lowest point along the standard curve for that particular assay.

NZM mice [5] = experiment: Antinuclear antibody ELISA (anti-Smith, anti-dsDNA), serum of NZM mice (Example 3)
IκBα [6] = experiment: IκBα accumulation ELISA in kidney 3 hours post dosing, NZM mice (Example 2); assay type: in vivo, mouse
Protocol: as §1

NZM mice [7] = experiment: Spleen CD38/CD138+ plasma cells by flow cytometry, NZM mice (Example 3)
NZM mice [8] = experiment: Renal histopathology blinded scores, NZM mice (Example 3); assay type: in vivo, mouse
Protocol: FIG. 52 depicts renal histopathology scores from NZM mice (H&E stained paraffin wax embedded kidney tissues sections from 25 week old mice).
For histological analyses, the left kidney from each animal is removed and fixed in 10% buffered neutral formalin (EMD) for 48 hours on an orbital rocker at 25° C., then washed overnight with running dH2O and stored in 70% ethanol at 4° C. until ready to be processed. Kidney stains used for histological analyses included hematoxylin and eosin (H&E), Periodic Acid Schiff (PAS) and Trichrome stains (Wistar Institute, Philadelphia, Pa.). All 3 stained sections are used by the pathologist for scoring purposes. All histological scoring is performed blinded and by an independent board certified veterinary medical pathologist (Julie Engiles, VMD, DACVP). Multiple stains are used to determine score values. Images in FIG. 39 show worst affected area of section selected blindly by the pathologist.
Kidney IC-GN Scoring Method (Smith, Dong et al. 2007): […]

SMILES: CC(C)C[C@H](NC(=O)[C@H](Cc1ccccc1)NC(=O)c1cnccn1)B(O)O [bortezomib, reference compound]
- PD 20S proteasome activity, percent change vs vehicle (20S proteasome [1]; G3 0.3 mg/kg ip, 1× wk): −14%
- PD 20S proteasome activity, percent change vs vehicle (20S proteasome [1]; G4 0.3 mg/kg ip, 2× wk): −27%
- PD EOS IκBα accumulation, percent change vs vehicle (IκBα [2]; G4: 0.5 mg/kg iv, 1× wk): +340%
- PD EOS IκBα accumulation, percent change vs vehicle (IκBα [2]; G5: 0.3 mg/kg iv, 2× wk): +99%
- serum C3 relative to vehicle (MRL/lpr mice; bortezomib treatment groups): did not exhibit a significant increase in serum C3
- spleen 20S proteasome function decrease vs vehicle (20S proteasome [3]; Group 4): 40%
- spleen 20S proteasome function decrease vs vehicle (20S proteasome [3]; Group 5): 41%
- PD EOS 20S proteasome, percent change vs vehicle (20S proteasome [3]; G4: 0.5 mg/kg iv, 1× wk): −40%
- PD EOS 20S proteasome, percent change vs vehicle (20S proteasome [3]; G5: 0.3 mg/kg iv, 2× wk): −41%
- serum IL-12 decrease vs vehicle (NZM mice [4]; Group 7, ip): 65.8%
- serum IL-12 decrease vs vehicle (NZM mice [4]; Group 8, sc): 75.6%
- serum anti-dsDNA ANA decrease vs vehicle (NZM mice [5]; Group 7, ip): 25.8%
- serum anti-smith ANA decrease vs vehicle (NZM mice [5]; Group 7, ip): 66.7%
- serum anti-dsDNA ANA decrease vs vehicle (NZM mice [5]; Group 8, sc): 55.4%
- serum anti-smith ANA decrease vs vehicle (NZM mice [5]; Group 8, sc): 85.7%
- PD IκBα accumulation, percent change vs vehicle (IκBα [6]; G3 0.3 mg/kg ip, 1× wk): +61%
- PD IκBα accumulation, percent change vs vehicle (IκBα [6]; G4 0.3 mg/kg ip, 2× wk): +29%
- spleen CD138/CD38 double positive plasma B cells decrease vs vehicle (NZM mice [7]; Group 7, ip): 35.4%
- spleen CD138/CD38 double positive plasma B cells decrease vs vehicle (NZM mice [7]; Group 8, sc): 57.8%
- combined average renal histopathology blinded score decrease vs vehicle (NZM mice [8]; Group 7, ip): 19.4%
- combined average renal histopathology blinded score decrease vs vehicle (NZM mice [8]; Group 8, sc): 43.6%

SMILES: CC(C)C[C@H](NC(=O)[C@@H](NC(=O)c1cccc(-c2ccccc2)n1)[C@@H](C)O)B(O)O [COMPOUND A, [(1R)-1-[[(2S,3R)-3-hydroxy-2-[6-phenyl-pyridine-2-carbonyl)amino]-1-oxobutyl]amino]-3-methylbutylboronic acid]
- spleen 20S proteasome inhibition relative to vehicle (20S proteasome [1]; COMPOUND A groups): ~40%
- PD 20S proteasome activity, percent change vs vehicle (20S proteasome [1]; G1 3 mg/kg ip, 1× wk): −42%
- PD 20S proteasome activity, percent change vs vehicle (20S proteasome [1]; G2 3 mg/kg ip, 2× wk): −41%
- PD EOS IκBα accumulation, percent change vs vehicle (IκBα [2]; G1: 3 mg/kg iv, 1× wk): +537%
- PD EOS IκBα accumulation, percent change vs vehicle (IκBα [2]; G2: 3 mg/kg iv, 2× wk): +227%
- PD EOS IκBα accumulation, percent change vs vehicle (IκBα [2]; G3: 10 mg/kg po, 2× wk): +166%
- serum C3 concentration increase over vehicle (MRL/lpr mice; treated orally, day 99): 128%
- spleen 20S proteasome function decrease vs vehicle (20S proteasome [3]; Group 1): 40%
- spleen 20S proteasome function decrease vs vehicle (20S proteasome [3]; Group 2): 45%
- spleen 20S proteasome function decrease vs vehicle (20S proteasome [3]; Group 3): 41%
- PD EOS 20S proteasome, percent change vs vehicle (20S proteasome [3]; G1: 3 mg/kg iv, 1× wk): −40%
- PD EOS 20S proteasome, percent change vs vehicle (20S proteasome [3]; G2: 3 mg/kg iv, 2× wk): −45%
- PD EOS 20S proteasome, percent change vs vehicle (20S proteasome [3]; G3: 10 mg/kg po, 2× wk): −41%
- serum IL-12 decrease vs vehicle (NZM mice [4]; Group 1 (regimen: Table 42)): 92.8%
- serum IL-12 decrease vs vehicle (NZM mice [4]; Group 2 (regimen: Table 42)): 76.6%
- serum IL-12 decrease vs vehicle (NZM mice [4]; Group 4 (regimen: Table 42)): 75.7%
- serum IL-12 decrease vs vehicle (NZM mice [4]; Group 5 (regimen: Table 42)): 70.8%
- serum anti-dsDNA ANA decrease vs vehicle (NZM mice [5]; Group 1 (regimen: Table 42)): 79.6%
- serum anti-smith ANA decrease vs vehicle (NZM mice [5]; Group 1 (regimen: Table 42)): 93.8%
- serum anti-dsDNA ANA decrease vs vehicle (NZM mice [5]; Group 2 (regimen: Table 42)): 69.2%
- serum anti-smith ANA decrease vs vehicle (NZM mice [5]; Group 2 (regimen: Table 42)): 85.0%
- serum anti-dsDNA ANA decrease vs vehicle (NZM mice [5]; Group 4 (regimen: Table 42)): 84.1%
- serum anti-smith ANA decrease vs vehicle (NZM mice [5]; Group 4 (regimen: Table 42)): 94.5%
- serum anti-dsDNA ANA decrease vs vehicle (NZM mice [5]; Group 5 (regimen: Table 42)): 81.0%
- serum anti-smith ANA decrease vs vehicle (NZM mice [5]; Group 5 (regimen: Table 42)): 92.4%
- PD IκBα accumulation, percent change vs vehicle (IκBα [6]; G1 3 mg/kg ip, 1× wk): +33%
- p, kidney IκBα accumulation 3 hours post dosing vs G9 Vehicle 1× wk ip (IκBα [6]; G2 3 mg/kg 2× wk ip): p < 0.05
- PD IκBα accumulation, percent change vs vehicle (IκBα [6]; G2 3 mg/kg ip, 2× wk): +60%
- kidney IκBα increase above vehicle (IκBα [6]; twice weekly administration): ~40%
- spleen CD138/CD38 double positive plasma B cells decrease vs vehicle (NZM mice [7]; Group 1 (regimen: Table 42)): 56.6%
- spleen CD138/CD38 double positive plasma B cells decrease vs vehicle (NZM mice [7]; Group 2 (regimen: Table 42)): 38.1%
- spleen CD138/CD38 double positive plasma B cells decrease vs vehicle (NZM mice [7]; Group 4 (regimen: Table 42)): 49.8%
- spleen CD138/CD38 double positive plasma B cells decrease vs vehicle (NZM mice [7]; Group 5 (regimen: Table 42)): 24.3%
- spleen CD138/CD38 double positive plasma B cells decrease vs vehicle (NZM mice [7]; Group 6 (regimen: Table 42)): 47.8%
- combined average renal histopathology blinded score decrease vs vehicle (NZM mice [8]; Group 1 (regimen: Table 42)): 53%
- combined average renal histopathology blinded score decrease vs vehicle (NZM mice [8]; Group 2 (regimen: Table 42)): 43.6%
- combined average renal histopathology blinded score decrease vs vehicle (NZM mice [8]; Group 3 (regimen: Table 42)): 18.9%
- combined average renal histopathology blinded score decrease vs vehicle (NZM mice [8]; Group 4 (regimen: Table 42)): 48.7%
- combined average renal histopathology blinded score decrease vs vehicle (NZM mice [8]; Group 5 (regimen: Table 42)): 40.5%
